Tests used:
[1] = Transfer hydrogenation: reduction of NAD+ with formate as hydride donor (1H-NMR); settings: for TOF (turnover frequency) for the reduction of NAD+: NAD+ 9 mol. equiv., formate 28 mol. equiv., pH* 7.4 ± 0.2, 310 K, complex 1.1 mM in MeOD/D2O (1:1 v/v)
Procedure: The ability of complexes 1–4 to oxidise NADH was investigated. The ^1H-NMR spectra show an increase of the NAD^+ signals over time (Figure 3). However, the reaction is very slow and after 8 h only around 10% of NADH is converted to NAD^+. […] The possibility of using compounds 1–4 as a transfer hydrogenation catalyst to reduce NAD^+ was investigated (Materials and Methods section). Compounds 1–4 reduced NAD^+ with turnover frequencies (TOF) between 6 and 15 h^−1 (Table 1), which is within the range of previously reported compounds [51, 53, 74, 75, 76]. Remarkably, under the conditions here reported (MeOD/D2O 1:1 v/v, 310 K, pH* 7.4 ± 0.2), the iridium complex 2 reduced nine molar equivalents of NAD^+ within the initial 10 min. However, no TOF could be calculated for this compound, owing to the speed of the reaction.
Transfer hydrogenation reactions with complexes 1–4, formate, and NAD^+ were studied by mixing a solution of the corresponding complex (2.2 mM, MeOD), sodium formate (137 mM, D2O) and NAD^+ (44 mM, D2O). Final concentrations of 1.1 mM for the complex, 10 mM for NAD^+ and 30 mM for NaHCO2 were obtained (molar ratio 1:9:28). The pH of the mixture was adjusted to 7.4 ± 0.2. ^1H-NMR spectra were recorded at 310 K every 5 min until completion of the reaction.
Molar ratios of NAD^+ and NADH were determined by integrating the area under the signals associated with NAD^+ (9.33 ppm) and 1,4-NADH (6.96 ppm). The turnover number (TON) for the reaction was calculated as follows: (1) TONI6.96/I6.96+[…][NAD^+]0/[Catalyst] where In is the integral of the signal at n ppm and [NAD^+]0 is the concentration of NAD^+ at the start of the reaction.

[2] = pKa determination by UV-Vis spectroscopy at increasing pH; format: physicochemical; settings: 6% acetonitrile/water v/v; for pKa: UV-Vis, aqua adduct, pH 7–12
Procedure: The pKa values for the complexes were measured by dissolving the compounds in 6% acetonitrile/water v/v (aqua adduct formed) and by recording the UV-Vis spectra of the samples at increasing pH (pH 7–12). pKa values of the complexes were calculated using Origin 2018 by plotting the absorbance at the corresponding wavelength against the pH and fitting it to the Boltzmann equation to obtain the inflection point. For complexes 2–4, the pKa values were calculated to be around 10 (Materials and Methods section and Table 1). The pKa of compound 1 could not be calculated, as the absorbance bands for the aqua- and the hydroxo- compounds overlap; however, changes could only be observed at pH values higher than 10. These pKa values are high, although such a decrease in acidity has been previously reported (generally attributed to an increased electron density on the metal centre). As a consequence of such high pKa, only the aqua adduct of the metal complexes is expected to be present at physiological pH (7.4), thus favouring the reaction between the metal complexes with possible ligands such as nucleobases or proteins.
Complexes 1–4 were dissolved in acetonitrile/H2O 6:94 v/v and UV-Vis spectra of the sample were recorded increasing the pH (pH 7–12). pKa vales of the complexes were calculated using Origin 2018 by plotting the absorbance against the pH.

9-ethylguanine (9-EtG) = assay: Binding constant towards 9-EtG by 1H-NMR titration; settings: complex 1.1 mM in MeOD/D2O (1:1 v/v), non-linear fit
Procedure: Binding constant of complexes 1, 3 and 4 with 9-EtG were calculated using the non-linear ThordarsonFittingProgram (Table 1). The binding constant for complex 2 was not calculated due to solubility issues. The magnitude of the binding constants (10^3–10^4 M^−1) is low compared to the usually observed complexation constants in coordination chemistry (>>10^6 M^−1), and is in the range of binding constants observed in host-guest inorganic chemistry (e.g., via non-covalent interactions between a metalla-cage and an aromatic planar guest molecule).
The reactions of complexes 1–4 with 9-ethylguanine (9-EtG) and 9-methyladenine (9-MetA) were studied. MeOD solutions of complexes 1–4 (2.2 mM) were mixed with a solution of the corresponding nucleobase in D2O (4.4 mM) and the pH adjusted to 7.4 ± 0.2. Final concentrations of 1.1 mM for the complex and 2.2 mM for the nucleobase were obtained. ^1H-NMR spectra of the resulting mixture were recorded at t ≤ 10 min, 5 h and 24 h in MeOD/D2O (1:1 v/v).
A titration using 9-EtG at increasing concentrations was performed and the resulting samples were analysed using ^1H-NMR spectroscopy. Binding constants were calculated using the non-linear ThordarsonFittingProgram by plotting the chemical shift of the complex versus the concentration of 9-EtG. Alternatively, binding constant for complexes 3 and 4 was obtained by plotting the ratio of 9-EtG adduct/complex against the concentration of 9-EtG.

A2780 cells = assay: Cell viability of A2780 cells, co-incubation with N-acetylcysteine (NAC); format: cell-based; settings: complex at IC50 concentration, NAC 0, 2, 5 and 10 mM
Procedure: In order to determine whether ROS formation is a plausible explanation for the activity of these compounds, A2780 cells were treated at IC50 concentrations of 1–4 in combination with increasing concentrations of N-acetylcysteine (NAC; 0, 2, 5 and 10 mM; Figure 4). NAC is a known compound that can act as an ROS scavenger in cells and can be used to counteract the effects of complexes that affect ROS levels. […] However, this effect is not observed with the Os and Ru analogues.
Cells were incubated in 96-well plates at a concentration of 7.5 × 10^3 cells per well and the plates were incubated for 24 h at 37 °C and a 5% CO2 humidified atmosphere prior to drug exposure. Complexes were dissolved in DMSO to provide stock solutions, which were further diluted with media to working concentrations. Solution of N-acetylcysteine (NAC) or sodium formate in media were also prepared. Drug-media solutions and NAC or sodium formate solutions were added to cells (final concentrations as follows: IC50 values for the complex; 0, 2, 5 and 10 mM for NAC; 0, 0.5, 1 and 2 mM for sodium formate; DMSO concentration was less than 1% (v/v) in all cases) and incubated for 24 h at 37 °C in a 5% CO2 humidified atmosphere. After 24 h of incubation, the drug-media was removed from the wells and the cells were washed with PBS (100 μL, twice), and 100 μL of complete fresh media were added to each well. The plates were further incubated for 48 h at 37 °C in a 5% CO2 humidified atmosphere to allow for a period of recovery. 3-(4,5-dimethylthiazol-2-yl)-2,5-diphenyltetrazolium bromide (MTT) (20 μL, 2.5 mg/mL) was added to each well and incubated for 2 h at 37 °C and 5% CO2 humidified atmosphere. All solutions were then removed and 100 μL of DMSO was added to each well in order to dissolve the purple formazan crystals. A Thermo Scientific Multiskan EX microplate photometer was used to measure the absorbance in each well at 570 nm. Cell survival was determined as the absorbance of treated cells divided by the absorbance of controls and expressed as a percentage.

Cc1c(C)c(C)[c-](C)c1C.[Cl-].[Rh+3].c1ccc(-c2cc3ccccc3[n-]2)nc1 [complex 1, [Cp*Rh(ind-py)Cl]]
TOF (printed in Figure 3C) ([1]; 28 mol. equiv. formate, 9 mol. equiv. NAD+, MeOD/D2O 1/1 v/v, pH 7.4, 310 K, in 1/h): 14.63 ± 0.78
TOF (turnover frequency) for the reduction of NAD+ [1]: 14.6 ± 0.7 h⁻¹
pH above which changes in the UV-Vis spectra could be observed ([2]; pKa itself could not be calculated): higher than 10
K9-EtG (binding constant towards 9-EtG) (9-ethylguanine (9-EtG)): 25600 M⁻¹
Effect on cell viability in NAC-supplemented cells (A2780 cells): significant decrease of the cell viability

Cc1ccc(C(C)C)cc1.[Cl-].[Ru+2].c1ccc(-c2cc3ccccc3[n-]2)nc1 [complex 3, [(p-cym)Ru(ind-py)Cl]]
TOF (turnover frequency) for the reduction of NAD+ [1]: 7.95 ± 0.81 h⁻¹
pKa [2]: 10.63 ± 0.03 (λ = 255 nm)
K9-EtG (binding constant towards 9-EtG) (9-ethylguanine (9-EtG)): 71600 M⁻¹
Effect on cell viability in NAC-supplemented cells (A2780 cells): not observed

Cc1ccc(C(C)C)cc1.[Cl-].[Os+2].c1ccc(-c2cc3ccccc3[n-]2)nc1 [complex 4, [(p-cym)Os(ind-py)Cl]]
TOF (turnover frequency) for the reduction of NAD+ [1]: 5.74 ± 0.35 h⁻¹
pKa [2]: 10.15 ± 0.04 (λ = 355 nm)
K9-EtG (binding constant towards 9-EtG) (9-ethylguanine (9-EtG)): 95400 M⁻¹
Effect on cell viability in NAC-supplemented cells (A2780 cells): not observed

Cc1c(C)c(C)[c-](C)c1C.[Cl-].[Ir+3].c1ccc(-c2cc3ccccc3[n-]2)nc1 [complex 2, [Cp*Ir(ind-py)Cl]]
Time to reduce nine molar equivalents of NAD+ ([1]; MeOD/D2O 1:1 v/v, 310 K, pH* 7.4 ± 0.2, formate 28 mol. equiv.): ≤ 10 min
pKa [2]: 9.59 ± 0.09 (λ = 300 nm)
Effect on cell viability in NAC-supplemented cells (A2780 cells): significant decrease of the cell viability

Source: paper PMC7583056, “Synthesis, Characterisation and In Vitro Anticancer Activity of Catalytically Active Indole-Based Half-Sandwich Complexes” (Molecules, 2020)
